# Results taken from patent US20230165875A1, “METHYLTHIONINIUM COMPOUNDS FOR USE IN THE TREATMENT OF COVID-19” (priority 2020, published 2023).
# Experiments:
# SARS-CoV2 = assay: Virucidal activity / neutralising viral toxicity in Vero-E6 cell assay in the dark (Cagno et al 2020 data); assay type: cell-based
# [1] = set-up: species or system rats; conditions: rat, in vivo, po, 10 mg/kg
# Protocol: A further whole body autoradiography study rats compared the distribution of LMT-associated radioactivity in brain, lung and heart following oral dosing at 10 mg/kg. […] The ratio specific for LMT in lung is therefore unknown. It is possible to relate plasma levels determined in a large clinical population (Schelter et al., 2019) to expected tissue levels of LMT at steady state across a wide dosing range of 8-250 mg/day. However, this depends critically on the tissue:plasma ratio for specifically affected tissues such a lung.
# [2] = Oxygen saturation and metHb in clinical trial patients after LMT dosing; assay type: in vivo, human
# Protocol: The present inventors have used data available for patients participating in clinical trials to determine whether LMT enhances oxygen saturation of blood. Data were available for 18 subjects with oxygen saturation <94% at baseline (lower limit of normal range is 95%). Oxygen saturation levels were compared pre-dose and after 4 hrs in the clinic following administration of a single doses of LMT at 4 mg and ˜100mg (mean of 75, 100, 125 mg; FIG. 8).
# In order to understand this effect further the inventors investigated whether the low oxygen saturation in these patients is due to elevation in metHb levels. There was no difference in metHb levels at baseline between subjects with low SpO2 and those with SpO2 levels in the normal range.
# [3] = Clinical safety / cardiotoxicity of LMTM; assay type: in vivo, human
# Protocol: Therefore, doses up to 250 mg/day could be given safely for treatment of COVID-19 patients.
# [4] = AD patients; cited from earlier work
# mitochondrial function = conditions: in vitro and in vivo; cited from earlier work
# SARS-CoV-2 = conditions: Vero cells, 48 hrs; read-out: IC50, SARS-CoV-2 antiviral activity (viral replication); cited from earlier work
compound,measurement,setting,value
"CN(C)c1ccc2c(c1)Sc1cc(N(C)C)ccc1N2 [LMT, hydromethylthionine]",potency as SARS-CoV-2 antiviral relative to hydroxychloroquine and remdesivir,SARS-CoV2; assuming comparability of the assays,approximately 23 fold
same,"ratio of heart and lung to brain (LMT-associated radioactivity, total MT)",[1],2:1
"CN(C)c1ccc2c(c1)Sc1cc(N(C)C)ccc1N2.CS(=O)(=O)O.CS(=O)(=O)O [LMTM, N,N,N′,N′-tetramethyl-10H-phenothiazine-3,7-diaminium bis(hydromethanesulfonate)]",metHb levels,"[2]; higher doses, over a period of time",systematically increases metHb levels
same,oxygen saturation of blood,"[2]; subjects with oxygen saturation <94% at baseline, 4 hours after single dose of LMT at 4 mg and ~100 mg",significantly increased oxygen saturation
same,safety across doses,"[3]; 8-250 mg/day, three Phase 3 trials in over 2,000 patients with dementia",well established
same,cardiotoxicity,"[3]; human, in vivo",does not have the cardiotoxicity
same,minimum effective dose (anti-dementia effects),[4],8 mg/day
same,optimally effective dose (anti-dementia effects),[4],16 mg/day
same,mitochondrial function,mitochondrial function,enhance mitochondrial function
CCN(CCO)CCCC(C)Nc1ccnc2cc(Cl)ccc12 (centres unmarked) [hydroxychloroquine],IC50,SARS-CoV-2,720 nM
methylthionine [MT moiety],IC50,"SARS-CoV2; Vero cell assay, 20 hrs, calculated from Cagno et al. data",32 nM
